Laboratory results from PubChem BioAssay AID1648 (Sanford-Burnham Center for Chemical Genomics, 2009).
The source made the active and inactive calls. No rule for the calls is given here.

Each compound was assayed against Serine/threonine-protein kinase mTOR (Homo sapiens) (UniProt P42345) (assay: mTOR FRB domain ligand binding – biophysical, NMR (AID 1648)). Details: NMR binding to FRB domain, chemical shift.
Chain of Serine/threonine-protein kinase mTOR (Homo sapiens) (P42345 2015-2114): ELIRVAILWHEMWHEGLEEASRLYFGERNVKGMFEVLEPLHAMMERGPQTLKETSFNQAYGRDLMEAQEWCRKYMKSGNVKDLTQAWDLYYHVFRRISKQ
`Nc1ncnc(NCCCO)c1[N+](=O)[O-]` was tested, and the Kd was > 4 mM (inactive). For `Cc1nn(-c2ccccc2)c(Cl)c1C(N)=O`, the Kd was > 4 mM (inactive). For `NC(=O)c1ccccc1NC(=O)C1CCCO1` (centres undefined), the Kd was > 4 mM (inactive). `CC(=O)Nc1cccc(-c2nc3ccccc3c(=O)o2)c1` was tested, and the Kd was > 4 mM (inactive). With `CC1(C)C=Cc2c(cc3occ(-c4ccc5c(c4)OCO5)c(=O)c3c2O)O1` the Kd was > 4 mM (inactive). With `COc1cccc2onc(N)c12` the Kd was > 4 mM (inactive). With `Cc1c(C(=O)NC2=NCCS2)oc2ccccc12` the Kd was > 4 mM (inactive). For `O=C(Oc1ccc2c(c1)OCC2=O)c1ccccc1`, the Kd was > 4 mM (inactive). With `Cc1ccc(CCNc2ccccc2)c[n+]1[O-]` the Kd was > 4 mM (inactive). `O=C(Nc1cccc2cccnc12)c1cccnc1` was tested, and the Kd was > 4 mM (inactive). With `Cc1cc(N)on1` the Kd was > 4 mM (inactive). For `CN(C)c1n[nH]c(=O)[nH]c1=O`, the Kd was > 4 mM (inactive). `O=C(/C=C/C=C/c1ccc2c(c1)OCO2)N1CCCCC1` was tested, and the Kd was > 4 mM (inactive). For `Nc1ccc(Cl)nn1`, the Kd was > 4 mM (inactive). With `CN1CCN(c2nc3c(c(=O)[nH]2)CCCC3)CC1` the Kd was > 4 mM (inactive). With `Cc1ccc(C)n1-c1ccc(C(=O)N2CCOCC2)cc1` the Kd was > 4 mM (inactive). In the case of `CC(=O)Nc1ccc2c(c1)n(C)c(=O)n2C`, the Kd is reported as > 4 mM (inactive). `Cc1nc(-c2cc(CO)no2)cs1` was tested, and the Kd was > 4 mM (inactive). For `COCC(=O)Nc1ccc(F)cc1F`, the Kd was > 4 mM (inactive). For `O=C1CSC(=S)N1Cc1cccnc1`, the Kd was > 4 mM (inactive). `Nc1nc(-c2ccccc2)ns1` was tested, and the Kd was > 4 mM (inactive). `Cc1cc(N2CCN(C)CC2)ncn1` was tested, and the Kd was > 4 mM (inactive). For `Cc1cc(C(=O)N2CCC3(CC2)OCCO3)cs1`, the Kd was > 4 mM (inactive). For `COC(=O)Cn1c2ccccc2c2nc(C)sc21`, the Kd was > 4 mM (inactive). For `COc1nc(-c2ccccc2)ccc1-c1noc(C)n1`, the Kd was > 4 mM (inactive). `Cc1scc(C(=O)Nc2ccon2)c1-c1ccccc1` was tested, and the Kd was > 4 mM (inactive). For `Cc1cc(C)n2nc(SCC(=O)c3ccccc3)nc2n1`, the Kd was > 4 mM (inactive). For `O=C(O)c1ccc2nccnc2c1`, the Kd was > 4 mM (inactive). `O=C(O)CCSc1nc2ccccc2s1` was tested, and the Kd was > 4 mM (inactive). With `COc1ccccc1-c1cn[nH]c(=S)n1` the Kd was > 4 mM (inactive). In the case of `COc1ccc2c(c1)OC[C@@H](Cc1ccc(OC)c(OC)c1)[C@@H]2O`, the Kd is reported as > 4 mM (inactive). With `c1ccc2[nH]c(NCCN3CCOCC3)nc2c1` the Kd was > 4 mM (inactive). With `CC(=O)Nc1ccc2c(c1)CCCC2=O` the Kd was > 4 mM (inactive). With `O=C(O)c1ccc(-c2cccs2)cc1` the Kd was > 4 mM (inactive). With `CCOC(=O)C1=C(C)N2CCN=C2S1` the Kd was > 4 mM (inactive). `Cc1cc(=O)oc2cc(O)c(O)cc12` was tested, and the Kd was > 4 mM (inactive). In the case of `CN1CCC(N2CCN(C)CC2)CC1`, the Kd is reported as > 4 mM (inactive). For `Nc1ccc(CCC(=O)O)cc1`, the Kd was > 4 mM (inactive). For `O=C1CSC(=Nc2ccc(Cl)cc2)N1`, the Kd was > 4 mM (inactive). For `NC(=O)C1CCN(C(=O)Nc2ccccc2)CC1`, the Kd was > 4 mM (inactive). For `CC(C)C(C)/C=C/C(C)[C@H]1CCC2C3=CCC4CC(=O)CC[C@]4(C)C3CC[C@@]21C` (some centres undefined), the Kd was > 4 mM (inactive). With `c1ccc(SCc2nc(-c3cccnc3)no2)cc1` the Kd was > 4 mM (inactive). With `CC1CCC2(OC1)OC1CC3C4CC[C@H]5C[C@@H](O)CC[C@]5(C)C4CC(=O)[C@]3(C)C1C2C` (some centres undefined) the Kd was > 4 mM (inactive). In the case of `C=CCNC(=O)c1ccc(Cl)cc1Cl`, the Kd is reported as > 4 mM (inactive). For `Nc1ncccc1OCc1ccccc1`, the Kd was > 4 mM (inactive). For `Cc1cccnc1NC1=NCC(C)S1` (centres undefined), the Kd was > 4 mM (inactive). `Oc1ccc(C2SCCS2)cc1` was tested, and the Kd was > 4 mM (inactive). `CC1CN(C2=NCCN2)CC(C)O1` (centres undefined) was tested, and the Kd was > 4 mM (inactive). `O=C(NC(=O)N1CCOCC1)c1ccccc1` was tested, and the Kd was > 4 mM (inactive). With `Cc1nccc2c1[nH]c1ccccc12` the Kd was > 4 mM (inactive). In the case of `Cn1cc(Cl)c(C(=O)Nc2ccc(F)cc2F)n1`, the Kd is reported as > 4 mM (inactive). For `CN1CCCn2c1nc1c2c(=O)[nH]c(=O)n1C`, the Kd was > 4 mM (inactive). With `CC[C@@]1(O)C[C@H](O)c2c(cc3c(c2O)C(=O)c2c(O)ccc(O)c2C3=O)[C@H]1C(=O)OC` the Kd was > 4 mM (inactive). `CCC(=O)Nc1ccccc1NC(C)=O` was tested, and the Kd was > 4 mM (inactive). `Oc1ccccc1N1CCOCC1` was tested, and the Kd was > 4 mM (inactive). For `CN1CCc2c(sc(N)c2C#N)C1`, the Kd was > 4 mM (inactive). `NC(=O)CS(=O)(=O)c1ccc2ccccc2c1` was tested, and the Kd was > 4 mM (inactive). For `O=C(/C(=N\O)n1cncn1)c1ccccc1Cl`, the Kd was > 4 mM (inactive). In the case of `OCc1snnc1-c1ccccc1`, the Kd is reported as > 4 mM (inactive). In the case of `Nc1cccc(CC(=S)N2CCOCC2)c1`, the Kd is reported as > 4 mM (inactive). With `COC1=CC(=O)C[C@@H](C)[C@]12Oc1c(Cl)c(OC)cc(OC)c1C2=O` the Kd was > 4 mM (inactive). With `COc1ccc(C)cc1-n1c(-c2ccncc2)n[nH]c1=S` the Kd was > 4 mM (inactive). For `Cc1nc2ccc(C(=O)N3CCSCC3)cc2s1`, the Kd was > 4 mM (inactive). In the case of `O=C(O)C(CO)c1ccccc1` (centres undefined), the Kd is reported as > 4 mM (inactive). For `CC(=O)OC[C@@]1(O)C[C@@]23CCC4c5ccoc5CC[C@]4(C)C2CC[C@@H]1C3` (some centres undefined), the Kd was > 4 mM (inactive). With `COc1cc(-c2coc3cc(O[C@@H]4O[C@H](CO)[C@@H](O)[C@H](O)[C@H]4O)c(OC)c(O)c3c2=O)cc(O)c1OC` the Kd was > 4 mM (inactive). With `c1ccc(-n2nnnc2-n2cnc3ccccc32)cc1` the Kd was > 4 mM (inactive). For `CNC(=S)Nc1ccc(C(=O)O)cc1`, the Kd was > 4 mM (inactive). With `c1ccc(Cc2nnc3sc(-c4ccncc4)nn23)cc1` the Kd was > 4 mM (inactive). For `COC(=O)Cc1cccc(OC)c1`, the Kd was > 4 mM (inactive). In the case of `CCOC(=O)c1ccc(F)cc1F`, the Kd is reported as > 4 mM (inactive). With `CN(C)C(=S)Nc1ccccc1N1CCOCC1` the Kd was > 4 mM (inactive). In the case of `Cc1nn(CC(=O)N2CCCCC2)c(=O)c2ccccc12`, the Kd is reported as > 4 mM (inactive). `OCC(O)C(O)C(O)CO` (centres undefined) was tested, and the Kd was > 4 mM (inactive). For `COc1cnn(-c2ccccc2)c(=O)c1N(C)C`, the Kd was > 4 mM (inactive). In the case of `CC1(C)NC(=O)N(CN2CCOCC2)C1=O`, the Kd is reported as > 4 mM (inactive). For `COc1ccc2c(c1OC)C(=O)O[C@@H]2[C@@H]1c2cc3c(cc2CCN1C)OCO3`, the Kd was > 4 mM (inactive). `O=C1CS/C(=N/N=C/c2cccs2)N1` was tested, and the Kd was > 4 mM (inactive). With `CN(C)Cc1nc2c([nH]1)c(=O)[nH]c(=O)n2C` the Kd was > 4 mM (inactive). For `COC(=O)C[C@@H]1C2(C)C(=O)[C@@H](CC3=C4CC(=O)O[C@@H](c5ccoc5)[C@]4(C)CCC32)[C@H](OC(C)=O)C1(C)C` (some centres undefined), the Kd was > 4 mM (inactive). For `N/C(=N/S(=O)(=O)c1cccs1)c1ccccc1`, the Kd was > 4 mM (inactive). With `CC(=O)Oc1ccc(N2C(=O)C3C4C=CC(O4)C3C2=O)cc1` (centres undefined) the Kd was > 4 mM (inactive). In the case of `O=C(Nc1ccon1)c1ccc(Cl)s1`, the Kd is reported as > 4 mM (inactive). With `O=C(NCc1cccs1)c1ccc2c(c1)OCCO2` the Kd was > 4 mM (inactive). For `COc1cc2c(cc1OC)C1(O)C(=O)c3ccc(O)c(C(=O)O)c3OC1CO2` (centres undefined), the Kd was > 4 mM (inactive). For `CS(=O)(=O)N1CCN(C(=O)c2ccccc2F)CC1`, the Kd was > 4 mM (inactive). With `CC(=O)Nc1nnc(-c2ccncc2)s1` the Kd was > 4 mM (inactive). `Cn1cc(C(=O)N/N=C/c2ccccc2)ccc1=O` was tested, and the Kd was > 4 mM (inactive). For `CC(=O)N1CCN(c2ccc(O)cc2)CC1`, the Kd was > 4 mM (inactive). In the case of `Cc1csc(SCC(=O)N2CCCC2)n1`, the Kd is reported as > 4 mM (inactive). `O=C(Nc1cnccn1)c1cccnc1` was tested, and the Kd was > 4 mM (inactive). In the case of `CCOc1ccc(C(=O)c2ccc(O)c(O)c2O)cc1`, the Kd is reported as > 4 mM (inactive). In the case of `O=C(Nc1nccs1)c1ccc(=O)[nH]n1`, the Kd is reported as > 4 mM (inactive). `COc1ccccc1C(=O)Nc1ccccn1` was tested, and the Kd was > 4 mM (inactive). In the case of `O=C(O)C1CCCCN1Cc1ccccc1` (centres undefined), the Kd is reported as > 4 mM (inactive). With `Nc1nnc(C(F)(F)F)s1` the Kd was > 4 mM (inactive). For `Cc1occc1C(=O)NC1CCN(C)CC1`, the Kd was > 4 mM (inactive). In the case of `O=C(NC(=S)NC1CCSC1=O)c1ccco1` (centres undefined), the Kd is reported as > 4 mM (inactive). `CC(C1OC(C)(C)C(O)C1O)[C@@H]1CC[C@]2(C)C3=CCC4C(C)(C)C(=O)CC[C@]4(C)C3CC[C@@]12C` (some centres undefined) was tested, and the Kd was > 4 mM (inactive). `Cn1c(O)c(C=NCC2CCNCC2)c(=O)n(C)c1=O` was tested, and the Kd was > 4 mM (inactive). `Cc1cc(C)n(S(=O)(=O)c2ccc(C(C)(C)C)cc2)n1` was tested, and the Kd was > 4 mM (inactive). In the case of `O=C(O)c1ccc2c(c1)OCO2`, the Kd is reported as > 4 mM (inactive). `CN1C(=O)c2ccc(N=C3NC(=O)CS3)cc2C1=O` was tested, and the Kd was > 4 mM (inactive). `Cc1nn2c(-c3ccco3)nnc2c2ccccc12` was tested, and the Kd was > 4 mM (inactive). With `Cc1nnc(SCC(=O)NCc2ccccc2)[nH]c1=O` the Kd was > 4 mM (inactive). For `CC1=C(CCC(=O)O)c2cc3nc(cc4[nH]c(cc5[nH]c(cc1n2)c(C)c5C(C)O)c(C)c4C(C)O)C(C)=C3CCC(=O)O` (centres undefined), the Kd was > 4 mM (inactive). With `OCCNc1ccccn1` the Kd was > 4 mM (inactive). In the case of `c1ccc2c(NC3=NCCS3)cccc2c1`, the Kd is reported as > 4 mM (inactive). With `CC(C)=CCc1c2c(c(O)c3c(=O)c(O)c(-c4ccccc4)oc13)C=CC(C)(C)O2` the Kd was > 4 mM (inactive). For `CNC(=S)Nc1ncn(Cc2cccc(F)c2)n1`, the Kd was > 4 mM (inactive). `COC(=O)c1cc2cc(N)ccc2s1` was tested, and the Kd was > 4 mM (inactive). With `NC(=O)CNC(=O)c1ccc2ccccc2n1` the Kd was > 4 mM (inactive). `NC[C@H]1O[C@H](O[C@H]2[C@H](O)[C@@H](O[C@H]3O[C@H](CO)[C@@H](O)[C@H](N)[C@H]3O)[C@H](N)C[C@@H]2N)[C@H](N)[C@@H](O)[C@@H]1O` was tested, and the Kd was > 4 mM (inactive). `CN(C)C(=O)CSc1cccc2cccnc12` was tested, and the Kd was > 4 mM (inactive). `O=C(Nc1cccc(O)c1)c1ccccc1` was tested, and the Kd was > 4 mM (inactive). In the case of `COc1ccc2nc(N)sc2c1`, the Kd is reported as > 4 mM (inactive). For `Cc1nn2c(nc1=O)SCC(c1ccccc1)=N2`, the Kd was > 4 mM (inactive). With `O=C(O)c1ccc(N2CCCCC2)cc1` the Kd was > 4 mM (inactive). With `CSc1nc(-c2ccco2)nn1S(C)(=O)=O` the Kd was > 4 mM (inactive).
